The source of these data is US5952322A, “Method of reducing tissue damage associated with non-cardiac ischemia using glycogen phosphorylase inhibitors” (Pfizer Inc., priority 1997, dated 1999).

Structures are written as SMILES. Like-named read-outs stand apart in the source and are kept apart here.

Test [1] concerns rabbit isolated heart. Kind of test: Cardioprotection (reduction of infarcted myocardium) in isolated, retrogradely perfused (Langendorff) rabbit heart after regional ischemia and reperfusion. Details: species or system Male New Zealand White rabbits. The conditions noted are these: for Infarct Area/Area-at-Risk (%IA/AAR): standard error in own column, control 63.9. From the text: Cardioprotection, as indicated by a reduction in infarcted myocardium, can be induced pharmacologically using adenosine receptor agonists in isolated, retrogradely perfused rabbit hearts as an in vitro model of myocardial ischemic preconditioning (Liu et al., Cardiovasc. Res., 28:1057-1061, 1994). […] The exact methodology is described below.
The protocol used for these experiments closely follows that described by Liu et al., Cardiovasc. Res., 28:1057-1061, 1994. Male New Zealand White rabbits (3-4 kg) are anesthetized with sodium pentobarbital (30 mg/kg, i.v.). After deep anesthesia is achieved (determined by the absence of an ocular blink reflex) the animal is intubated and ventilated with 100% O2 using a positive pressure ventilator. A left thoracotomy is performed, the heart exposed, and a snare (2-0 silk) is placed loosely around a branch of the left anterior descending coronary artery, approximately 2/3 of the distance towards the apex of the heart. The heart is removed from the chest and rapidly (<30 sec) mounted on a Langendorff apparatus. The heart is retrogradely perfused via the aorta in a non-recirculating manner with a modified Krebs solution (NaCl 118.5 mM, KCl 4.7 mM, Mg SO4 1.2 mM, KH2 PO4 1.2 mM, NaHCO3 24.8 mM, CaCl2 2.5 mM, and glucose 10 mM), at a constant pressure of 80 mmHg and a temperature of 37° C. […] Heart rate and left ventricular pressures are determined via a latex balloon which is inserted in the left ventricle and connected by stainless steel tubing to a pressure transducer. […] Perfusate flow rates are routinely determined throughout the experimental period. […]
At the end of the 120 min reperfusion period, the coronary artery snare is tightened, and a 0.5% suspension of fluorescent zinc cadmium sulfate particles ([…]) is perfused through the heart; this stains all of the myocardium, except that area at risk for infarct development (area-at-risk). […] The infarcted area (no stain) and the area-at-risk (no fluorescent particles) are calculated for each slice of left ventricle using a precalibrated image analyzer. […]

The target in test [2] is T1, human muscle glycogen phosphorylase a (HMGPa) (Homo sapiens, UniProt P11217).
T1 construct: made in house; host or cells: E. coli strain XL-1 Blue (plasmid pKK233-2)
T1 sequence (P11217 2-842 limits assumed): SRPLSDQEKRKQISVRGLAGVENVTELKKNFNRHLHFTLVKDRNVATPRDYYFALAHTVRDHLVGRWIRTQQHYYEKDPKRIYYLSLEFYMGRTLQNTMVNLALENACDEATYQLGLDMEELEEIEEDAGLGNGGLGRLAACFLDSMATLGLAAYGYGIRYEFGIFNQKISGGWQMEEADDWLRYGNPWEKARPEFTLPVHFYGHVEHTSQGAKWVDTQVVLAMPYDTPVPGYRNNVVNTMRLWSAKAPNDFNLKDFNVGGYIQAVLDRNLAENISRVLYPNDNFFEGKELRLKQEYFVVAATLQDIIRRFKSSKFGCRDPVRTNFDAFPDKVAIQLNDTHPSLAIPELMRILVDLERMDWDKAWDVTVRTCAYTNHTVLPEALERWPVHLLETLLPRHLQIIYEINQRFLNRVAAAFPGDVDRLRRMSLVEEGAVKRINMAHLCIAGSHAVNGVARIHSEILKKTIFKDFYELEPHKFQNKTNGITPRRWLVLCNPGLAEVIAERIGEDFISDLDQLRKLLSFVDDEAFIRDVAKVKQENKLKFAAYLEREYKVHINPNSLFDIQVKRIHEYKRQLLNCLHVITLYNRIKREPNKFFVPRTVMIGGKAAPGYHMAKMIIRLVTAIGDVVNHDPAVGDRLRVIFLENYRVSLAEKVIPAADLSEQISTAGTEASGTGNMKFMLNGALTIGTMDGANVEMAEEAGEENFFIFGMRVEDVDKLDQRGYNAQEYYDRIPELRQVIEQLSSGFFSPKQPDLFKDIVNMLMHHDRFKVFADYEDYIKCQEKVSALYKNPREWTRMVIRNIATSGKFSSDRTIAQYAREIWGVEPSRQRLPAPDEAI
Kind of test: GPa activity assay, reverse direction (inorganic phosphate release from glucose-1-phosphate), human muscle isoform. In kind it is biochemical. On the procedure:
(§1) All reactions are run in triplicate in 96-well microtiter plates and the change in absorbance due to formation of the reaction product is measured at the wavelength specified below in a MCC/340 MKII Elisa Reader (Lab Systems, Finland), connected to a Titertech Microplate Stacker (ICN Biomedical Co, Huntsville, Ala.).
(§2) Buffer B is at pH 7.2 and contains 50 mM HEPES, 100 mM KCl, 2.5 mM EGTA, 2.5 mM MgCl2 and 0.5 mM dithiothreitol. […] After a 20 minute incubation at room temperature, the absorbance is measured at 620 nm.

The target of test [3] is T2, human liver glycogen phosphorylase a (HLGPa) (Homo sapiens, UniProt P06737).
T2 construct: made in house; host or cells: E. coli XL-1 Blue (pKK233-2) or Sf9 insect cells (pBlueBac III baculovirus)
T2 sequence (P06737 2-847 limits assumed): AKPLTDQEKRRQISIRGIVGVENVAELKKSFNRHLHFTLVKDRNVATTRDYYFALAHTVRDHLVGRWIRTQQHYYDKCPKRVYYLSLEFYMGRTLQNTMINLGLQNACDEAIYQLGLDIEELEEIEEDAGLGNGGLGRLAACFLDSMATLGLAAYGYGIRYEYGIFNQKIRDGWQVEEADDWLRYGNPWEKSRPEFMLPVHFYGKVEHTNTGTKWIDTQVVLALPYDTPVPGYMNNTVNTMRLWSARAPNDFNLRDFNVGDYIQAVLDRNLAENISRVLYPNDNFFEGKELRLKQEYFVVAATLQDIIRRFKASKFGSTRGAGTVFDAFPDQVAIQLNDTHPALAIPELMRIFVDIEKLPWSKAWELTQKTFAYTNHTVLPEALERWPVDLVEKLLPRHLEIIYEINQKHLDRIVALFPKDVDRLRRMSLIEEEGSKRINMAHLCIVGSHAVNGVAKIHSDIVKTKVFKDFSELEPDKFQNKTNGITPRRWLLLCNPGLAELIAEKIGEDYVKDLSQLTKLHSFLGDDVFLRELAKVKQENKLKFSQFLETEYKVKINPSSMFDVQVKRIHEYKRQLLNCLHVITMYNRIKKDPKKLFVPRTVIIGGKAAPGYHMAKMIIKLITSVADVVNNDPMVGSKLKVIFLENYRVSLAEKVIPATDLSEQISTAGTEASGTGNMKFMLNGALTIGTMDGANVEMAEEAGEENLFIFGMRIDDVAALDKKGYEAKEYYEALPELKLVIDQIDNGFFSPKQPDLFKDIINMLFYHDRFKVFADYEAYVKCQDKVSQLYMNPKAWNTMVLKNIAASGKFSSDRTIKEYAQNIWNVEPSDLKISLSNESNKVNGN
In words: GPa activity assay, reverse direction (inorganic phosphate release from glucose-1-phosphate), human liver isoform. Format: biochemical. On the procedure:
as §1, §2

Test [4] has as its system rabbit isolated heart. The conditions noted are these: Liu et al., Cardiovasc. Res., 28:1057-1061, 1994; cited from earlier work.
[5] abbreviates: reverse direction assay, HLGPa, read-out: HLGPa IC50.

On to `O=C(N[C@@H](Cc1ccccc1)C(=O)N1CC(O)C1)c1cc2cc(Cl)ccc2[nH]1` [5-chloro-1H-indole-2-carboxylic acid [(1S)-benzyl-2-(3-hydroxy-azetidin-1-yl)-2-oxo-ethyl]-amide], for which, in the test on rabbit isolated heart [1] (5 μM), the “cardioprotection relative to the control group” value is listed as “significant cardioprotection”. In addition, the “Infarct Area/Area-at-Risk (%IA/AAR)” value in the test with rabbit isolated heart [1] (5 μM, perfused from 30 min before 30 min regional ischemia through 120 min reperfusion, n=6) worked out at 31.4%.
In general, IC50 refers to the midpoint of a concentration-inhibition curve. On to `CN(C)C(=O)[C@H](O)[C@H](Cc1ccccc1)NC(=O)c1cc2cc(Cl)ccc2[nH]1` [5-Chloro-1H-indole-2-carboxylic acid [(1S)-((R)-hydroxy-dimethylcarbamoyl-methyl)-2-phenyl-ethyl]-amide], for which the figures for the IC50 in test [2] and in test [3] were 155 nM and 108 nM, respectively.
Regarding `CN(CCO)C(=O)[C@H](O)[C@H](Cc1ccccc1)NC(=O)c1cc2cc(Cl)ccc2[nH]1` [5-Chloro-1H-indole-2-carboxylic acid ((1S)-{(R)-hydroxy-[(2-hydroxy-ethyl)methyl-carbamoyl]-methyl}-2-phenyl-ethyl)-amide], the IC50 came to 20 nM in test [2] and 152 nM in test [3] (setting [5]).
For the molecule `CON(C)C(=O)[C@H](O)[C@H](Cc1ccccc1)NC(=O)c1cc2cc(Cl)ccc2[nH]1` [5-Chloro-1H-indole-2-carboxylic acid {(1S)-[(R)-hydroxy-(methoxy-methylcarbamoyl)-methyl]-2-phenyl-ethyl}-amide], the figures for the half-maximal inhibitory concentration (IC50) in test [2] and in test [3] (setting [5]) were 110 nM and 51 nM, respectively.
For the molecule `Nc1ccc(CCNc2ncnc3c2ncn3[C@@H]2O[C@H](CO)[C@@H](O)[C@H]2O)cc1` [APNEA, N^6-[2-(4-aminophenyl)ethyl]adenosine, reference compound], the “Infarct Area/Area-at-Risk (%IA/AAR)” value with rabbit isolated heart [1] (500 nM, perfused 5 min, then 10 min drug-free, before 30 min ischemia and 120 min reperfusion, n=9) is 19.0%. In addition, the “pharmacologically induced cardioprotection in the rabbit isolated heart” value in the test on rabbit isolated heart [4] is reported as “shown to pharmacologically induce cardioprotection”.
